Assay results taken from patent publication US10596092B2, “Deodorant composition and a method for preparing thereof” (priority 2017, dated 2020).

Assay: Neutralization of odoriferous acid by GC-FID
Format: physicochemical
Method: Hexamine, which is weakly basic in nature, was incubated with two commonly known odoriferous acids, i.e., 3-hydroxy-3-methyl-hexanoic acid (HMHA) and hexanoic acid, and the potential neutralization effect was studied by using a Gas Chromatograph with a Flame Ionization Detector (GC-FID). The chromatograms showing the neutralization of 3-hydroxy-3-methyl-hexanoic acid (HMHA) by sodium hydroxide and hexamine; and the neutralization of hexanoic acid by hexamine are shown in FIGS. 1 and 2, respectively.

C1N2CN3CN1CN(C2)C3 [hexamine]
neutralization of odoriferous acid (FIG. 1): capable of neutralizing the tested odoriferous acids
neutralization of odoriferous acid (FIG. 2): capable of neutralizing the tested odoriferous acids
